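Five compound concentrations were applied to cells in 96-well plates for 48 hours; endpoints were derived by simple linear interpolation of the resulting dose-response curve. At the GI50, growth is halved. TGI: concentration producing complete growth inhibition.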
Test system: SK-MEL-28 melanoma
Assay: NCI-60 cell line screen, 48 h

`CC(=O)N1C/C(=C\c2ccc(N(C)C)cc2)C(=O)/C(=C/c2ccc(N(C)C)cc2)C1` and `COC1=CC2(C=CC1=O)c1cc(OC)c(OC)cc1CCN2C(=O)c1ccccc1` (stereo unspecified) cannot be ordered by TGI: > 100 µM for the first, > 100 µM for the second.

Test system: SK-OV-3 ovarian
Assay: NCI-60 cell line screen, 48 h

First: Fc1ccc(C2SCc3nc4ccccc4n32)cc1Cl (stereo unspecified)
Second: Cc1ccc(NC(=O)NCCCOc2ccc(N3C(N)=NC(N)=NC3(C)C)cc2Cl)cc1S(=O)(=O)F
The TGI of the first is lower: 49.5 µM for the first, > 100 µM for the second.

Compared with `CC[CH2][Sn]([Cl])([Cl])[CH2]CC.Oc1ccccc1C=NCCN=Cc1ccccc1O`, `COC1=CC2(C=CC1=O)c1cc(OC)c(OC)cc1CCN2C(=O)c1ccccc1` (stereo unspecified) is higher in TGI: 35.1 µM for the first, > 100 µM for the second.

Going from `CC(C)c1ccc(C(c2ccc(OCC(=O)O)cc2)c2ccc(C(C)C)cc(=O)c2O)c(O)c(=O)c1` to `CC(=O)N1C/C(=C\c2ccc(N(C)C)cc2)C(=O)/C(=C/c2ccc(N(C)C)cc2)C1`, the TGI rises from 41.9 µM to > 100 µM.

With `COc1ccc2c3c(coc13)C(CCC(=O)O)CC2` (stereo unspecified) the TGI was > 100 µM.

Compared with `Cc1ccc(NC(=O)NCCCOc2ccc(N3C(N)=NC(N)=NC3(C)C)cc2Cl)cc1S(=O)(=O)F`, `CC[CH2][Sn]([Cl])([Cl])[CH2]CC.Oc1ccccc1C=NCCN=Cc1ccccc1O` is 2.5-fold lower in GI50: 43.6 µM for the first, 17.2 µM for the second.

Test system: KM12 colon
Assay: NCI-60 cell line screen, 48 h

First: Fc1ccc(C2SCc3nc4ccccc4n32)cc1Cl (stereo unspecified)
Second: CN1C(=O)c2ccccc2NC(=O)C12O[C@@H]2c1cccc(O)c1 (stereo partly specified)
The TGI of the first is lower: 39.8 µM for the first, > 100 µM for the second.

`CC1=N/C(=C\c2cccc([N+](=O)[O-])c2)C(=O)O1` and `CNc1nc(N)c(N=O)c(Nc2ccc(Br)cc2)n1` cannot be ordered by TGI: > 100 µM for the first, > 100 µM for the second.

`Cc1ccc(NC(=O)NCCCOc2ccc(N3C(N)=NC(N)=NC3(C)C)cc2Cl)cc1S(=O)(=O)F` and `COc1ncc(-c2ccc3ncnc(Nc4cccc(Cl)c4)c3c2)cc1NS(=O)(=O)CCN1CCOCC1` cannot be ordered by TGI: > 100 µM for the first, > 100 µM for the second.

Going from `CC[CH2][Sn]([Cl])([Cl])[CH2]CC.Oc1ccccc1C=NCCN=Cc1ccccc1O` to `COC(C(O)c1ccc2c(c1)OCO2)P(=O)(c1ccccc1)c1ccccc1` (stereo unspecified), the TGI rises from 25.9 µM to > 100 µM.

Going from `N#Cc1cccc(NC(=O)c2cc(-c3ccc(F)cc3F)ccc2O)c1` to `COC1=CC2(C=CC1=O)c1cc(OC)c(OC)cc1CCN2C(=O)c1ccccc1` (stereo unspecified), the TGI rises from 10.8 µM to > 100 µM.

With `CC(=O)N1C/C(=C\c2ccc(N(C)C)cc2)C(=O)/C(=C/c2ccc(N(C)C)cc2)C1` the TGI was > 100 µM.

Going from `COc1ccc(/C=C\c2cc(OC)c(OC)c(OC)c2)cc1OC(=O)NCCN(C)C` to `Cc1ccc(NC(=O)NCCCOc2ccc(N3C(N)=NC(N)=NC3(C)C)cc2Cl)cc1S(=O)(=O)F`, the GI50 rises from < 0.0001 µM to 6.29 µM.

Going from `CC[CH2][Sn]([Cl])([Cl])[CH2]CC.Oc1ccccc1C=NCCN=Cc1ccccc1O` to `N#Cc1cccc(NC(=O)c2cc(-c3ccc(F)cc3F)ccc2O)c1`, the GI50 falls from 12.7 µM to 3 µM (4.2-fold).

For `COc1ncc(-c2ccc3ncnc(Nc4cccc(Cl)c4)c3c2)cc1NS(=O)(=O)CCN1CCOCC1`, the GI50 was 1.81 µM.

Test system: U251 CNS
Assay: NCI-60 cell line screen, 48 h

Compared with `Fc1ccc(C2SCc3nc4ccccc4n32)cc1Cl` (stereo unspecified), `CN1C(=O)c2ccccc2NC(=O)C12O[C@@H]2c1cccc(O)c1` (stereo partly specified) is higher in TGI: 44.6 µM for the first, > 100 µM for the second.

`CC1=N/C(=C\c2cccc([N+](=O)[O-])c2)C(=O)O1` and `COc1cccc(/C=C2\C(=O)N(C(=O)c3ccc(NC(C)=O)cc3)N=C2C)c1` cannot be ordered by TGI: > 100 µM for the first, > 100 µM for the second.

`Cc1ccc(NC(=O)NCCCOc2ccc(N3C(N)=NC(N)=NC3(C)C)cc2Cl)cc1S(=O)(=O)F` and `COc1ncc(-c2ccc3ncnc(Nc4cccc(Cl)c4)c3c2)cc1NS(=O)(=O)CCN1CCOCC1` cannot be ordered by TGI: > 100 µM for the first, > 100 µM for the second.

Going from `CC[CH2][Sn]([Cl])([Cl])[CH2]CC.Oc1ccccc1C=NCCN=Cc1ccccc1O` to `COC(C(O)c1ccc2c(c1)OCO2)P(=O)(c1ccccc1)c1ccccc1` (stereo unspecified), the TGI rises from 12.5 µM to > 100 µM.

`CNc1nc(N)c(N=O)c(Nc2ccc(Br)cc2)n1` and `N#Cc1cccc(NC(=O)c2cc(-c3ccc(F)cc3F)ccc2O)c1` cannot be ordered by TGI: > 100 µM for the first, > 100 µM for the second.

Going from `CC(C)c1ccc(C(c2ccc(OCC(=O)O)cc2)c2ccc(C(C)C)cc(=O)c2O)c(O)c(=O)c1` to `CC(=O)N1C/C(=C\c2ccc(N(C)C)cc2)C(=O)/C(=C/c2ccc(N(C)C)cc2)C1`, the TGI rises from 24.9 µM to > 100 µM.

`COc1ccc2c3c(coc13)C(CCC(=O)O)CC2` (stereo unspecified) and `COC1=CC2(C=CC1=O)c1cc(OC)c(OC)cc1CCN2C(=O)c1ccccc1` (stereo unspecified) cannot be ordered by TGI: > 100 µM for the first, > 100 µM for the second.

First: Cc1ccc(NC(=O)NCCCOc2ccc(N3C(N)=NC(N)=NC3(C)C)cc2Cl)cc1S(=O)(=O)F
Second: COc1ncc(-c2ccc3ncnc(Nc4cccc(Cl)c4)c3c2)cc1NS(=O)(=O)CCN1CCOCC1
The GI50 of the first is 4.9-fold higher: 4.04 µM for the first, 0.824 µM for the second.

`CC[CH2][Sn]([Cl])([Cl])[CH2]CC.Oc1ccccc1C=NCCN=Cc1ccccc1O` and `N#Cc1cccc(NC(=O)c2cc(-c3ccc(F)cc3F)ccc2O)c1` are within 1.5-fold of each other in GI50: 3.11 µM for the first, 2.79 µM for the second.

`C/C=C1/C(=C/c2[nH]c(/C=c3\[nH]/c(=C/C4=NC(=O)C(CC)=C4C)c(C)c3CCC(=O)O)c(CCC(=O)O)c2C)NC(=O)C1C` (stereo unspecified) was tested, and the GI50 was > 150 µg/mL.

With `C/C=C1/C(=C/c2[nH]c(/C=c3\[nH]/c(=C/C4=NC(=O)C(CC)=C4C)c(C)c3CCC(=O)O)c(CCC(=O)O)c2C)NC(=O)C1C` (stereo unspecified) the TGI was > 150 µg/mL.

Test system: HCT-116 colon
Assay: NCI-60 cell line screen, 48 h

`CC1=N/C(=C\c2cccc([N+](=O)[O-])c2)C(=O)O1` and `COc1cccc(/C=C2\C(=O)N(C(=O)c3ccc(NC(C)=O)cc3)N=C2C)c1` cannot be ordered by TGI: > 100 µM for the first, > 100 µM for the second.

`Cc1ccc(NC(=O)NCCCOc2ccc(N3C(N)=NC(N)=NC3(C)C)cc2Cl)cc1S(=O)(=O)F` and `COc1ncc(-c2ccc3ncnc(Nc4cccc(Cl)c4)c3c2)cc1NS(=O)(=O)CCN1CCOCC1` cannot be ordered by TGI: > 100 µM for the first, > 100 µM for the second.

First: CC[CH2][Sn]([Cl])([Cl])[CH2]CC.Oc1ccccc1C=NCCN=Cc1ccccc1O
Second: COC(C(O)c1ccc2c(c1)OCO2)P(=O)(c1ccccc1)c1ccccc1 (stereo unspecified)
The TGI of the first is lower: 16.3 µM for the first, > 100 µM for the second.

`CNc1nc(N)c(N=O)c(Nc2ccc(Br)cc2)n1` and `CN1C(=O)c2ccccc2NC(=O)C12O[C@@H]2c1cccc(O)c1` (stereo partly specified) cannot be ordered by TGI: > 100 µM for the first, > 100 µM for the second.

Going from `CC(C)c1ccc(C(c2ccc(OCC(=O)O)cc2)c2ccc(C(C)C)cc(=O)c2O)c(O)c(=O)c1` to `CC(=O)N1C/C(=C\c2ccc(N(C)C)cc2)C(=O)/C(=C/c2ccc(N(C)C)cc2)C1`, the TGI rises from 14.1 µM to > 100 µM.

`COc1ccc2c3c(coc13)C(CCC(=O)O)CC2` (stereo unspecified) and `COC1=CC2(C=CC1=O)c1cc(OC)c(OC)cc1CCN2C(=O)c1ccccc1` (stereo unspecified) cannot be ordered by TGI: > 100 µM for the first, > 100 µM for the second.

Work on `N#Cc1cccc(NC(=O)c2cc(-c3ccc(F)cc3F)ccc2O)c1` yielded a TGI of 10.6 µM.

`Cc1ccc(NC(=O)NCCCOc2ccc(N3C(N)=NC(N)=NC3(C)C)cc2Cl)cc1S(=O)(=O)F` and `COc1ncc(-c2ccc3ncnc(Nc4cccc(Cl)c4)c3c2)cc1NS(=O)(=O)CCN1CCOCC1` are within 1.5-fold of each other in GI50: 2.22 µM for the first, 1.49 µM for the second.

First: CC[CH2][Sn]([Cl])([Cl])[CH2]CC.Oc1ccccc1C=NCCN=Cc1ccccc1O
Second: N#Cc1cccc(NC(=O)c2cc(-c3ccc(F)cc3F)ccc2O)c1
The GI50 of the first is 1.9-fold higher: 4.89 µM for the first, 2.57 µM for the second.

`C/C=C1/C(=C/c2[nH]c(/C=c3\[nH]/c(=C/C4=NC(=O)C(CC)=C4C)c(C)c3CCC(=O)O)c(CCC(=O)O)c2C)NC(=O)C1C` (stereo unspecified) was tested, and the GI50 was > 150 µg/mL.

For `C/C=C1/C(=C/c2[nH]c(/C=c3\[nH]/c(=C/C4=NC(=O)C(CC)=C4C)c(C)c3CCC(=O)O)c(CCC(=O)O)c2C)NC(=O)C1C` (stereo unspecified), the TGI was > 150 µg/mL.

Test system: SF-295 CNS
Assay: NCI-60 cell line screen, 48 h

Going from `Fc1ccc(C2SCc3nc4ccccc4n32)cc1Cl` (stereo unspecified) to `CN1C(=O)c2ccccc2NC(=O)C12O[C@@H]2c1cccc(O)c1` (stereo partly specified), the TGI rises from 98.1 µM to > 100 µM.

`CC1=N/C(=C\c2cccc([N+](=O)[O-])c2)C(=O)O1` and `COc1cccc(/C=C2\C(=O)N(C(=O)c3ccc(NC(C)=O)cc3)N=C2C)c1` cannot be ordered by TGI: > 100 µM for the first, > 100 µM for the second.

First: Cc1ccc(NC(=O)NCCCOc2ccc(N3C(N)=NC(N)=NC3(C)C)cc2Cl)cc1S(=O)(=O)F
Second: N#Cc1cccc(NC(=O)c2cc(-c3ccc(F)cc3F)ccc2O)c1
The TGI of the first is higher: > 100 µM for the first, 5.19 µM for the second.

Compared with `CC[CH2][Sn]([Cl])([Cl])[CH2]CC.Oc1ccccc1C=NCCN=Cc1ccccc1O`, `COC1=CC2(C=CC1=O)c1cc(OC)c(OC)cc1CCN2C(=O)c1ccccc1` (stereo unspecified) is higher in TGI: 32.7 µM for the first, > 100 µM for the second.

`CNc1nc(N)c(N=O)c(Nc2ccc(Br)cc2)n1` and `COc1ccc2c3c(coc13)C(CCC(=O)O)CC2` (stereo unspecified) cannot be ordered by TGI: > 100 µM for the first, > 100 µM for the second.

Compared with `CC(C)c1ccc(C(c2ccc(OCC(=O)O)cc2)c2ccc(C(C)C)cc(=O)c2O)c(O)c(=O)c1`, `CC(=O)N1C/C(=C\c2ccc(N(C)C)cc2)C(=O)/C(=C/c2ccc(N(C)C)cc2)C1` is higher in TGI: 55.1 µM for the first, > 100 µM for the second.

Going from `Cc1ccc(NC(=O)NCCCOc2ccc(N3C(N)=NC(N)=NC3(C)C)cc2Cl)cc1S(=O)(=O)F` to `N#Cc1cccc(NC(=O)c2cc(-c3ccc(F)cc3F)ccc2O)c1`, the GI50 falls from 26.5 µM to 2.16 µM (12-fold).

For `CC[CH2][Sn]([Cl])([Cl])[CH2]CC.Oc1ccccc1C=NCCN=Cc1ccccc1O`, the GI50 was 14.7 µM.

Source: PubChem BioAssay (NCI)
